# Laboratory results reported in patent US6613795B2, “Enantiomerically pure basic arylcycloalkylhydroxycarboxylic esters, processes for their preparation and their use in medicaments” (priority 1996, dated 2003).
# Columns and labels:
# [1] = target: T1, M2 receptors (Rattus norvegicus, UniProt P10980); test: [3H]-NMS binding studies on M2 receptors from preparations of rat hearts
# T1 construct: M2 receptors from preparations of rat hearts; from tissue; host or cells: rat heart preparations
# T1 sequence (P10980 1-466): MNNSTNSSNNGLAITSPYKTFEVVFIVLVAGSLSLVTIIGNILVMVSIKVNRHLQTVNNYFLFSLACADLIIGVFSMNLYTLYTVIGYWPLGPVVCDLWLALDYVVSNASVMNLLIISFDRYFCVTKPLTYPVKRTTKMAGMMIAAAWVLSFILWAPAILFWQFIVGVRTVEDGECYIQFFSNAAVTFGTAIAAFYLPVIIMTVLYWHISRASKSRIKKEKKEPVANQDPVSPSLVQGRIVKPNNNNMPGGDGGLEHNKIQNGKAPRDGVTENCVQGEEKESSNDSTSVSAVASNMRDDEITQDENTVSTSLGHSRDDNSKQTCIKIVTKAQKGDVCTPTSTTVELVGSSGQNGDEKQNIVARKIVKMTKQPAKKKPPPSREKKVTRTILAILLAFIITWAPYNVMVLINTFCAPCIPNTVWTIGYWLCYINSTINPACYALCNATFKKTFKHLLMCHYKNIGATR
# Text: c pKi values from [^3H]-NMS binding studies on M2 receptors from preparations of rat hearts
# [2] = tested on: M2; test: functional experiments on guinea pig atrium (GPA); format: cell-based
# Text: a pA2 and pEC50 values from functional experiments on rabbit vas deferens, guinea pig atrium and guinea pig ileum.
SMILES,Ki [1],PA2 GPA (M2) [2]
"C[N+]1(C)CC[C@H](OC(=O)[C@@](O)(c2ccccc2)C2CCCC2)C1 [Ia, (3S,2′S)-3-[(cyclopentylhydroxyphenylacetyl)oxy]-1,1-dimethylpyrrolidinium iodide]",13.2 nM,7.92
"C[N+]1(C)CC[C@@H](OC(=O)[C@](O)(c2ccccc2)C2CCCC2)C1 [Ic, (3R,2′R)-3-[(cyclopentylhydroxyphenylacetyl)oxy]-1,1-dimethylpyrrolidinium iodide]",,9.43
"C[N+]1(C)CC[C@@H](OC(=O)[C@@](O)(c2ccccc2)C2CCCC2)C1 [Id, (3R,2′S)-3-[(cyclopentylhydroxyphenylacetyl)oxy]-1,1-dimethylpyrrolidinium iodide]",1 nM,8.69
"C[N+]1(C)CC[C@H](OC(=O)[C@](O)(c2ccccc2)C2CCCC2)C1 [Ib, (3S,2′R)-3-[(cyclopentylhydroxyphenylacetyl)oxy]-1,1-dimethylpyrrolidinium iodide]",0.182 nM,
